{
  "source": "the kinase profiling compilation of Christmann-Franck et al. (2016)",
  "key": {"ULK3 (human)": {"target": "ULK3 (human) (UniProt Q6PHR2)"}, "MAP3K1 (human)": {"target": "MAP3K1 (human) (UniProt Q13233)"}, "PRKAA1 (human)": {"target": "PRKAA1 (human) (UniProt Q13131)"}, "HCK (human)": {"target": "HCK (human) (UniProt P08631)"}, "MAP3K4 (human)": {"target": "MAP3K4 (human) (UniProt Q9Y6R4)"}, "CAMKK2 (human)": {"target": "CAMKK2 (human) (UniProt Q96RR4)"}, "CLK2 (human)": {"target": "CLK2 (human) (UniProt P49760)"}, "PTK2B (human)": {"target": "PTK2B (human) (UniProt Q14289)"}, "ACVR1B (human)": {"target": "ACVR1B (human) (UniProt P36896)"}, "FRK (human)": {"target": "FRK (human) (UniProt P42685)"}, "NLK (human)": {"target": "NLK (human) (UniProt Q9UBE8)"}, "BMP2K (human)": {"target": "BMP2K (human) (UniProt Q9NSY1)"}, "EIF2AK1 (human)": {"target": "EIF2AK1 (human) (UniProt Q9BQI3)", "sequence (Q9BQI3 whole entry, looked up)": "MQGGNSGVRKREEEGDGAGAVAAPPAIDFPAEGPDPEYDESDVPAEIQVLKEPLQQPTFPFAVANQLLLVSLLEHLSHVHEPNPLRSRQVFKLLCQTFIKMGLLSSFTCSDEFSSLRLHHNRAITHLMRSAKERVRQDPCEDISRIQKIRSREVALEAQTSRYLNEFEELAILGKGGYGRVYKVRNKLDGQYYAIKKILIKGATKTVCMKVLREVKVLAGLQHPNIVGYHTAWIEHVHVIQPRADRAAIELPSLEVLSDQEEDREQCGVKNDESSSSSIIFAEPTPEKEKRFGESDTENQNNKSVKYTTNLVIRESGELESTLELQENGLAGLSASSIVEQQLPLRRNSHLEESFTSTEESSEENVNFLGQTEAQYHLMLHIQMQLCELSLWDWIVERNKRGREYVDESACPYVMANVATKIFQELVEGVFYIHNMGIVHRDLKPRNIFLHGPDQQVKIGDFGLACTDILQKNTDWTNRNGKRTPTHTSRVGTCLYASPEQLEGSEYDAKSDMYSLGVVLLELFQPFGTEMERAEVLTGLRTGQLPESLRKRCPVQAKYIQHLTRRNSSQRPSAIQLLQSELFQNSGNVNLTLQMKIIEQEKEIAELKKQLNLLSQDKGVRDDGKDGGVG"}, "MAP4K5 (human)": {"target": "MAP4K5 (human) (UniProt Q9Y4K4)"}, "MERTK (human)": {"target": "MERTK (human) (UniProt Q12866)"}, "SIK3 (human)": {"target": "SIK3 (human) (UniProt Q9Y2K2)"}, "MAP4K2 (human)": {"target": "MAP4K2 (human) (UniProt Q12851)"}, "EPHB1 (human)": {"target": "EPHB1 (human) (UniProt P54762)", "sequence (P54762 whole entry, looked up)": "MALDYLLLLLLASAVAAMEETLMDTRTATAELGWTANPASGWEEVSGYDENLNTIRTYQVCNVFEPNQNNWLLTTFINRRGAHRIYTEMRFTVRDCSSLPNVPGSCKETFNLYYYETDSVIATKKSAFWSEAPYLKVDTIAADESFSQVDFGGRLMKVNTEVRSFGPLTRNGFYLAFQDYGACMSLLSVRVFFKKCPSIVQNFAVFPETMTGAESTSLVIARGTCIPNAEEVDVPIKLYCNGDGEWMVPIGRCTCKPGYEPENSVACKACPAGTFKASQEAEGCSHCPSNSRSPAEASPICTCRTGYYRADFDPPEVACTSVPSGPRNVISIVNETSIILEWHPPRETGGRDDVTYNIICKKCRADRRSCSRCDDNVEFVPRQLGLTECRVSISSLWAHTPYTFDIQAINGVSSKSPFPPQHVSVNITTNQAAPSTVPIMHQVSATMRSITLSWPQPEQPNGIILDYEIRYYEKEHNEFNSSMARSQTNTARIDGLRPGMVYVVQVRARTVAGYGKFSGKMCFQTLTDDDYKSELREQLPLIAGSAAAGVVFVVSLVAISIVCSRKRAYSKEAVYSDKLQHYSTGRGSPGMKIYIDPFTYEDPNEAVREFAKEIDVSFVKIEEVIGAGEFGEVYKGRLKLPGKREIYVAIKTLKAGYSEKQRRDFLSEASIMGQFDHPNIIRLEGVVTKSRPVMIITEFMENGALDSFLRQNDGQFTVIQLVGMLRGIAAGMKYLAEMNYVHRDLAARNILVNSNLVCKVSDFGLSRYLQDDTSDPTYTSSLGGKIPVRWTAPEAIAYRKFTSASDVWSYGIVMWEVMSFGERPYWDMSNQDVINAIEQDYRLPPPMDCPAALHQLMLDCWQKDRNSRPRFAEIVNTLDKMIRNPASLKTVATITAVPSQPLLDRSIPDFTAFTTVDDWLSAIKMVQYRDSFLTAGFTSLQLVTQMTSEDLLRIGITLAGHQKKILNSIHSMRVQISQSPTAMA"}, "TBK1 (human)": {"target": "TBK1 (human) (UniProt Q9UHD2)"}, "SMG1 (human)": {"target": "SMG1 (human) (UniProt Q96Q15)"}, "BTK (human)": {"target": "BTK (human) (UniProt Q06187)", "sequence (Q06187 whole entry, looked up)": "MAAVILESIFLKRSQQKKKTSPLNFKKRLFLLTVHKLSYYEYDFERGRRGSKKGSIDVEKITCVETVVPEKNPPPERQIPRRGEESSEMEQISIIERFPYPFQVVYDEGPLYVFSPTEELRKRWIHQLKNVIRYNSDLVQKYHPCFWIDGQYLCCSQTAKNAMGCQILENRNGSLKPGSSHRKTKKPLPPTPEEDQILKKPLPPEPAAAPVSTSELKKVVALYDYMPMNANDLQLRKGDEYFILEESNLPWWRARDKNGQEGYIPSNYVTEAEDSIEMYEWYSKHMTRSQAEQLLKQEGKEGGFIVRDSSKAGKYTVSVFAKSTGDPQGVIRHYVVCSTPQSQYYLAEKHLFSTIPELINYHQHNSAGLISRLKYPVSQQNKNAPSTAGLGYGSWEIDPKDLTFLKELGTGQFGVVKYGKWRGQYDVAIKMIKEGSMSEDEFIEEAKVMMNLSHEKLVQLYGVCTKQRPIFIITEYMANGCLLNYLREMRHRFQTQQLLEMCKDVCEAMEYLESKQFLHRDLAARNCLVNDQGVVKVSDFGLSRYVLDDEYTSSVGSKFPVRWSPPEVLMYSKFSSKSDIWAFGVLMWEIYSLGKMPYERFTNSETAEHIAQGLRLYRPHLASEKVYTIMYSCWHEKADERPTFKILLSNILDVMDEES"}, "TNK2 (human)": {"target": "TNK2 (human) (UniProt Q07912)"}, "SYK (human)": {"target": "SYK (human) (UniProt P43405)"}, "CSK (human)": {"target": "CSK (human) (UniProt P41240)", "sequence (P41240 whole entry, looked up)": "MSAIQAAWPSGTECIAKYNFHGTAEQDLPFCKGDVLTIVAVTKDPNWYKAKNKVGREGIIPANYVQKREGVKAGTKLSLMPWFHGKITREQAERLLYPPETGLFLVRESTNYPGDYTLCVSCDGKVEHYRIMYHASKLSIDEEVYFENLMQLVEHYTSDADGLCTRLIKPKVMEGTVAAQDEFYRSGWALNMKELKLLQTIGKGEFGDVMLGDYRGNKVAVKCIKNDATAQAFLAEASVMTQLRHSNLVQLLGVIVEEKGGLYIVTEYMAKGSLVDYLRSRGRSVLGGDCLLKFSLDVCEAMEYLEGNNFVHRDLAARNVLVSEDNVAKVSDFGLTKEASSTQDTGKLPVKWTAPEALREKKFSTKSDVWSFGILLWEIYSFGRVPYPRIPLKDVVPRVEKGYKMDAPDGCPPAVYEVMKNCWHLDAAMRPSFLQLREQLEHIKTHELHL"}, "MAP3K11 (human)": {"target": "MAP3K11 (human) (UniProt Q16584)"}, "TEC (human)": {"target": "TEC (human) (UniProt P42680)"}, "CAMK2G (human)": {"target": "CAMK2G (human) (UniProt Q13555)"}, "MAP3K3 (human)": {"target": "MAP3K3 (human) (UniProt Q99759)"}, "RPS6KA3 KD1 KD2 (human)": {"target": "RPS6KA3 KD1 KD2 (human) (UniProt P51812)", "sequence (P51812 whole entry, looked up)": "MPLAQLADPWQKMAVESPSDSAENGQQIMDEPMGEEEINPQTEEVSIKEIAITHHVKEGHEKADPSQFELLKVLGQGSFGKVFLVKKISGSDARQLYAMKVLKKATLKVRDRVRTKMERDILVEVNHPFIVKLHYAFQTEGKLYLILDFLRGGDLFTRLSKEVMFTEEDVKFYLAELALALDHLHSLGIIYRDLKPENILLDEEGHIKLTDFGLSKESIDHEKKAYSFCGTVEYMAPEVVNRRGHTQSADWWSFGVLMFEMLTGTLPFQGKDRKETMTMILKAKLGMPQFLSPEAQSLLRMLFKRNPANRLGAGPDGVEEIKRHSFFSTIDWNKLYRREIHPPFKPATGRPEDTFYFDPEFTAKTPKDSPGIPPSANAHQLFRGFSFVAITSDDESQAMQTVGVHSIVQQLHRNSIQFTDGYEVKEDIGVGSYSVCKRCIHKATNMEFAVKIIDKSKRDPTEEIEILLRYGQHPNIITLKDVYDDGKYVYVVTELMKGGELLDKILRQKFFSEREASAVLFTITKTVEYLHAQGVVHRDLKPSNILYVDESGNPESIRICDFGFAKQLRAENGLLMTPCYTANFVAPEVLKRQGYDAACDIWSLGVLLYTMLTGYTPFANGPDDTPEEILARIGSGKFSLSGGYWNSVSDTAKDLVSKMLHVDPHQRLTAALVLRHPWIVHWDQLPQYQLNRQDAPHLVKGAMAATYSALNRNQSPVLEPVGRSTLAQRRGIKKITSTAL"}, "TAOK1 (human)": {"target": "TAOK1 (human) (UniProt Q7L7X3)"}, "PRKCQ (human)": {"target": "PRKCQ (human) (UniProt Q04759)"}, "ABL2 (human)": {"target": "ABL2 (human) (UniProt P42684)", "sequence (P42684 whole entry, looked up)": "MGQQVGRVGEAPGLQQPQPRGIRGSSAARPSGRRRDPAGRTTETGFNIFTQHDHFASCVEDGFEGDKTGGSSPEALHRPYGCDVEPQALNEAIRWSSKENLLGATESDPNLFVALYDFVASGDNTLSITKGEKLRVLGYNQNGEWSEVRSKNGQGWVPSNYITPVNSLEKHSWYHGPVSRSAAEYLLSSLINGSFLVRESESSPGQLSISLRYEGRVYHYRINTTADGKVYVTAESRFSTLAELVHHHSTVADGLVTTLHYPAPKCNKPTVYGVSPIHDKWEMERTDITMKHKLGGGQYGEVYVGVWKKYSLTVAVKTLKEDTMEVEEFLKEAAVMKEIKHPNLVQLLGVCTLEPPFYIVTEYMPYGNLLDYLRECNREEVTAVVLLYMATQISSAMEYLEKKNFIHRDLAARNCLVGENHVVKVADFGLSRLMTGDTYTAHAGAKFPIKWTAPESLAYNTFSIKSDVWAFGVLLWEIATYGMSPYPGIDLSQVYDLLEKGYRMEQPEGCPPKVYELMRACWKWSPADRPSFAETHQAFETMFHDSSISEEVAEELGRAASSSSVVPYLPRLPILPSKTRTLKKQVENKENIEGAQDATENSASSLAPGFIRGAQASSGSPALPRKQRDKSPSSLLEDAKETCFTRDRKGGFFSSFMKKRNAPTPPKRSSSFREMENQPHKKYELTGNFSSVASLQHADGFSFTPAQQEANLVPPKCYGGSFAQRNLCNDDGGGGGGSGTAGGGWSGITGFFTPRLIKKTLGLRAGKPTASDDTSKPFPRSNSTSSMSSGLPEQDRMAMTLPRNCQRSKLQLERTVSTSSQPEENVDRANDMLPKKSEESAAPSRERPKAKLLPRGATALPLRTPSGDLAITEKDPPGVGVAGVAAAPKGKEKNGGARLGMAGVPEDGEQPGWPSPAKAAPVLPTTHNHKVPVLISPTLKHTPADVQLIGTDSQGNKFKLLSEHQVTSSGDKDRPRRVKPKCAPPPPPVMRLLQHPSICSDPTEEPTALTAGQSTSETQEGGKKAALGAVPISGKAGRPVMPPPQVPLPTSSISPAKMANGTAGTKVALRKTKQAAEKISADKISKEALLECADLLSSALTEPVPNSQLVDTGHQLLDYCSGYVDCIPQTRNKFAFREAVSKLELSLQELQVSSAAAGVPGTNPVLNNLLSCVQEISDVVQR"}},
  "data": [
    {"compound": "COc1cc(Nc2c(C#N)cnc3cc(OCCCN4CCN(C)CC4)c(OC)cc23)c(Cl)cc1Cl", "values": [
      {"measurement": "IC50", "setting": "ULK3 (human)", "result": 0.842, "unit": "µM"},
      {"measurement": "IC50", "setting": "MAP3K1 (human)", "result": 0.156, "unit": "µM"},
      {"measurement": "IC50", "setting": "PRKAA1 (human)", "result": 1.06, "unit": "µM"},
      {"measurement": "IC50", "setting": "HCK (human)", "result": 0.58, "unit": "µM"},
      {"measurement": "IC50", "setting": "MAP3K4 (human)", "result": 0.299, "unit": "µM"},
      {"measurement": "IC50", "setting": "CAMKK2 (human)", "result": 1.43, "unit": "µM"},
      {"measurement": "IC50", "setting": "CLK2 (human)", "result": 1.1, "unit": "µM"},
      {"measurement": "IC50", "setting": "PTK2B (human)", "result": 1.22, "unit": "µM"},
      {"measurement": "IC50", "setting": "ACVR1B (human)", "result": 0.091, "unit": "µM"},
      {"measurement": "IC50", "setting": "FRK (human)", "result": 0.507, "unit": "µM"},
      {"measurement": "IC50", "setting": "NLK (human)", "result": 1.1, "unit": "µM"},
      {"measurement": "IC50", "setting": "BMP2K (human)", "result": 1.06, "unit": "µM"},
      {"measurement": "IC50", "setting": "EIF2AK1 (human)", "result": 1.22, "unit": "µM"},
      {"measurement": "IC50", "setting": "MAP4K5 (human)", "result": 0.493, "unit": "µM"},
      {"measurement": "IC50", "setting": "MERTK (human)", "result": 0.746, "unit": "µM"},
      {"measurement": "IC50", "setting": "SIK3 (human)", "result": 0.346, "unit": "µM"},
      {"measurement": "IC50", "setting": "MAP4K2 (human)", "result": 0.431, "unit": "µM"},
      {"measurement": "IC50", "setting": "EPHB1 (human)", "result": 0.369, "unit": "µM"},
      {"measurement": "IC50", "setting": "TBK1 (human)", "result": 1.26, "unit": "µM"},
      {"measurement": "IC50", "setting": "SMG1 (human)", "result": 0.836, "unit": "µM"},
      {"measurement": "IC50", "setting": "BTK (human)", "result": 0.175, "unit": "µM"},
      {"measurement": "IC50", "setting": "TNK2 (human)", "result": 0.316, "unit": "µM"},
      {"measurement": "IC50", "setting": "SYK (human)", "result": 0.745, "unit": "µM"},
      {"measurement": "IC50", "setting": "CSK (human)", "result": 0.707, "unit": "µM"},
      {"measurement": "IC50", "setting": "MAP3K11 (human)", "result": 1.54, "unit": "µM"},
      {"measurement": "IC50", "setting": "TEC (human)", "result": 0.567, "unit": "µM"},
      {"measurement": "IC50", "setting": "CAMK2G (human)", "result": 1.52, "unit": "µM"},
      {"measurement": "IC50", "setting": "MAP3K3 (human)", "result": 0.612, "unit": "µM"},
      {"measurement": "IC50", "setting": "RPS6KA3 KD1 KD2 (human)", "result": 2.39, "unit": "µM"},
      {"measurement": "IC50", "setting": "TAOK1 (human)", "result": 2.63, "unit": "µM"},
      {"measurement": "IC50", "setting": "PRKCQ (human)", "result": 1.56, "unit": "µM"},
      {"measurement": "IC50", "setting": "ABL2 (human)", "result": 0.071, "unit": "µM"}
    ]}
  ]
}
